One may read the EC50 as the concentration that produces a half-maximal response.

In data set [1] the target is MC4 receptor (Homo sapiens, UniProt P32245). The data set can be described thus: MC4 receptor functional potency (EC50), Protocol E of WO 2005/077935. It counts as cell-based. The conditions noted are these: read-out: functional potency at the MC4 receptor expressed as an EC50. As to the method:
MC5 and MC4 activity was determined as described by assay protocols D and E, respectively, in US2005/0176772 (pages 28-30).

For data set [2], the system named is men with psychogenic and organic ED. The conditions noted are these: cited from earlier work.

Chain of MC4 receptor (P32245 whole entry): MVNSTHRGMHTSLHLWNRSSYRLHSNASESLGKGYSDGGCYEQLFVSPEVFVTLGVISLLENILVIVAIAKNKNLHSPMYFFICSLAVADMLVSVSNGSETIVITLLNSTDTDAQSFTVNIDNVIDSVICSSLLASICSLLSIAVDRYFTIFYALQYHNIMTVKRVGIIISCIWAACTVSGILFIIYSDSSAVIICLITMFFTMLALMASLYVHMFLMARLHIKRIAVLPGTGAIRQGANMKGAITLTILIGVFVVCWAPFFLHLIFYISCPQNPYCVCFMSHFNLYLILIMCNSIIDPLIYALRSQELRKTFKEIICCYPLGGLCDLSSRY

On to `CO[C@H]1CN(C(=O)[C@@H]2CN(c3cccnn3)C[C@H]2c2ccc(F)cc2F)CC[C@]1(OC)c1ccccc1` [Example 8, 3-[(3R,4S)-3-(2,4-difluorophenyl)-4-{[(3S,4S)-3,4-dimethoxy-4-phenylpiperidin-1-yl]carbonyl}pyrrolidin-1-yl]pyridazine], for which, in data set [1], the concentration for a half-maximal effect (EC50) amounted to 1.5 nM.

Turning to `CCO[C@@H]1CN(C(=O)[C@@H]2CN(c3cccnn3)C[C@H]2c2ccc(F)cc2F)CC[C@@]1(O)c1ccccc1` [Example 13, (3R,4R)-1-{[(3S,4R)-4-(2,4-difluorophenyl)-1-pyridazin-3-ylpyrrolidin-3-yl]carbonyl}-3-ethoxy-4-phenylpiperidin-4-ol], in data set [1], the EC50 was found to be 44 nM.

As to `CO[C@H]1CN(C(=O)[C@@H]2CN(c3cccnn3)C[C@H]2c2ccc(F)cc2F)CC[C@]1(OC)c1ccc(F)cc1` [Example 15, 3-[(3R,4S)-3-(2,4-difluorophenyl)-4-{[(3S,4S)-4-(4-fluorophenyl)-3,4-dimethoxypiperidin-1-yl]carbonyl}pyrrolidin-1-yl]pyridazine], in data set [1], the EC50 came out at 11.5 nM.

For the compound Melanotan II, the “increased sexual desire reported (share of doses)” value in data set [2] (13/19 doses, questionnaire, P<0.01 vs placebo) is 68%. In data set [2] (dose of 0.025 mg/kg), the “subjects with severe nausea” value was 12.9%. For the same compound, in data set [2] (in the absence of sexual stimulation, men with psychogenic and organic ED), the “penile erection (number of men)” value is listed as 17 of 20. Further, the “mean duration of Rigiscan tip rigidity >80%” value in data set [2] (penile rigidity monitored for 6 hours using RigiScan) is 41 min.

These data come from patent US20080269233A1, “Piperidinoyl-Pyrrolidine and Piperidinoyl-Piperidine Compounds” (priority 2006, published 2008).
